In ChEMBL document CHEMBL4138123, “Design, synthesis and biological evaluation of novel pyrazolochalcones as potential modulators of PI3K/Akt/mTOR pathway and inducers of apoptosis in breast cancer cells” (Eur J Med Chem, 2017):

Columns and labels:
SK-MEL-5 = experiment: Cytotoxicity against human SK-MEL-5 cells assessed as cell growth at 10 uM after 48 hrs by sulforhodamine B assay relative to control; type: functional; details: SK-MEL-5, 48 h, read-out: Activity
HCT-15 = experiment: Cytotoxicity against human HCT15 cells assessed as growth inhibition after 48 hrs by sulforhodamine B assay; type: functional; details: HCT-15, 48 h
MOLT-4 [1] = experiment: Cytotoxicity against human MOLT4 cells assessed as cell growth at 10 uM after 48 hrs by sulforhodamine B assay relative to control; type: functional; details: MOLT-4, 48 h, read-out: Activity
HL-60(TB) = experiment: Cytotoxicity against human HL-60(TB) cells assessed as cell growth at 10 uM after 48 hrs by sulforhodamine B assay relative to control; type: functional; details: HL-60, 48 h, read-out: Activity
K562 [2] = experiment: Cytotoxicity against human K562 cells assessed as cell growth at 100 uM after 48 hrs by sulforhodamine B assay relative to control; type: functional; details: K562, 48 h, read-out: Activity
TK-10 = experiment: Cytotoxicity against human TK10 cells assessed as cell growth at 100 uM after 48 hrs by sulforhodamine B assay relative to control; type: functional; details: TK-10, 48 h, read-out: Activity
OVCAR-5 = experiment: Cytotoxicity against human OVCAR5 cells assessed as cell growth at 100 uM after 48 hrs by sulforhodamine B assay relative to control; type: functional; details: OVCAR-5, 48 h, read-out: Activity
786-0 = experiment: Cytotoxicity against human 786-0 cells assessed as cell growth at 100 uM after 48 hrs by sulforhodamine B assay relative to control; type: functional; details: 786-0, 48 h, read-out: Activity
OVCAR-4 = experiment: Cytotoxicity against human OVCAR4 cells assessed as cell growth at 10 uM after 48 hrs by sulforhodamine B assay relative to control; type: functional; details: OVCAR-4, 48 h, read-out: Activity
NCI-H322M = experiment: Cytotoxicity against human NCI-H322M cells assessed as growth inhibition after 48 hrs by sulforhodamine B assay; type: functional; details: for CC50: read-out: LC50 (the source's name)
RXF 393 = experiment: Cytotoxicity against human RXF393 cells assessed as cell growth at 10 uM after 48 hrs by sulforhodamine B assay relative to control; type: functional; details: RXF 393, 48 h, read-out: Activity
KM12 = experiment: Cytotoxicity against human KM12 cells assessed as cell growth at 100 uM after 48 hrs by sulforhodamine B assay relative to control; type: functional; details: KM12, 48 h, read-out: Activity
HCC 2998 [3] = experiment: Cytotoxicity against human HCC2998 cells assessed as growth inhibition after 48 hrs by sulforhodamine B assay; type: functional; details: HCC 2998, 48 h
SK-OV-3 = experiment: Cytotoxicity against human SKOV3 cells assessed as cell growth at 1 uM after 48 hrs by sulforhodamine B assay relative to control; type: functional; details: SK-OV-3, 48 h, read-out: Activity
MDA-MB-231 [4] = experiment: Cytotoxicity against human MDA-MB-231 cells assessed as growth inhibition after 48 hrs by MTT assay; type: functional, cell-based; details: MDA-MB-231, 48 h
Malme-3M = experiment: Cytotoxicity against human MALME-3M cells assessed as cell growth at 1 uM after 48 hrs by sulforhodamine B assay relative to control; type: functional; details: read-out: Activity
NCI-H23 [5] = experiment: Cytotoxicity against human NCI-H23 cells assessed as cell growth at 1 uM after 48 hrs by sulforhodamine B assay relative to control; type: functional; details: NCI-H23, 48 h, read-out: Activity
NCI-H23 [6] = experiment: Cytotoxicity against human NCI-H23 cells assessed as cell growth at 100 uM after 48 hrs by sulforhodamine B assay relative to control; type: functional; details: NCI-H23, 48 h, read-out: Activity
MDA-MB-435 = experiment: Cytotoxicity against human MDA-MB-435 cells assessed as growth inhibition after 48 hrs by sulforhodamine B assay; type: functional; details: MDA-MB-435, 48 h
MOLT-4 [7] = experiment: Cytotoxicity against human MOLT4 cells assessed as cell growth at 100 uM after 48 hrs by sulforhodamine B assay relative to control; type: functional; details: MOLT-4, 48 h, read-out: Activity
SF-268 [8] = experiment: Cytotoxicity against human SF268 cells assessed as cell growth at 0.1 uM after 48 hrs by sulforhodamine B assay relative to control; type: functional; details: SF-268, 48 h, read-out: Activity
M14 [9] = experiment: Cytotoxicity against human M14 cells assessed as cell growth at 0.1 uM after 48 hrs by sulforhodamine B assay relative to control; type: functional; details: M14, 48 h, read-out: Activity
SW-620 = experiment: Cytotoxicity against human SW620 cells assessed as growth inhibition after 48 hrs by sulforhodamine B assay; type: functional; details: SW-620, 48 h
SR = experiment: Cytotoxicity against human SR cells assessed as cell growth at 1 uM after 48 hrs by sulforhodamine B assay relative to control; type: functional; details: read-out: Activity
NCI-H522 = experiment: Cytotoxicity against human NCI-H522 cells assessed as cell growth at 100 uM after 48 hrs by sulforhodamine B assay relative to control; type: functional; details: NCI-H522, 48 h, read-out: Activity
MDA-MB-231 [10] = experiment: Cytotoxicity against human MDA-MB-231 cells assessed as cell growth at 0.1 uM after 48 hrs by sulforhodamine B assay relative to control; type: functional; details: MDA-MB-231, 48 h, read-out: Activity
OVCAR-8 = experiment: Cytotoxicity against human OVCAR8 cells assessed as cell growth at 100 uM after 48 hrs by sulforhodamine B assay relative to control; type: functional; details: OVCAR-8, 48 h, read-out: Activity
SNB-19 = experiment: Cytotoxicity against human SNB19 cells assessed as cell growth at 1 uM after 48 hrs by sulforhodamine B assay relative to control; type: functional; details: SNB-19, 48 h, read-out: Activity
M14 [11] = experiment: Cytotoxicity against human M14 cells assessed as cell growth at 0.01 uM after 48 hrs by sulforhodamine B assay relative to control; type: functional; details: M14, 48 h, read-out: Activity
M14 [12] = experiment: Cytotoxicity against human M14 cells assessed as cell growth at 100 uM after 48 hrs by sulforhodamine B assay relative to control; type: functional; details: M14, 48 h, read-out: Activity
K562 [13] = experiment: Cytotoxicity against human K562 cells assessed as cell growth at 1 uM after 48 hrs by sulforhodamine B assay relative to control; type: functional; details: K562, 48 h, read-out: Activity
HCC 2998 [14] = experiment: Cytotoxicity against human HCC2998 cells assessed as cell growth at 0.1 uM after 48 hrs by sulforhodamine B assay relative to control; type: functional; details: HCC 2998, 48 h, read-out: Activity
COLO 205 = experiment: Cytotoxicity against human COLO205 cells assessed as cell growth at 0.1 uM after 48 hrs by sulforhodamine B assay relative to control; type: functional; details: COLO 205, 48 h, read-out: Activity
SF-268 [15] = experiment: Cytotoxicity against human SF268 cells assessed as cell growth at 10 uM after 48 hrs by sulforhodamine B assay relative to control; type: functional; details: SF-268, 48 h, read-out: Activity
T47D = experiment: Cytotoxicity against human T47D cells assessed as cell growth at 100 uM after 48 hrs by sulforhodamine B assay relative to control; type: functional; details: read-out: Activity

## COc1ccc(-c2cc(/C=C/C(=O)c3ccc(N)cc3)[nH]n2)cc1OC
SK-MEL-5
  growth at 10 µM: 6%
HCT-15
  GI50: 1.7 µM
  LC50: 33 µM
  TGI: 5.37 µM
MOLT-4 [1]
  growth at 10 µM: 6%
HL-60(TB)
  growth at 10 µM: 10%
K562 [2]
  growth at 100 µM: -3%
TK-10
  growth at 100 µM: -98%
OVCAR-5
  growth at 100 µM: -81%
786-0
  growth at 100 µM: -97%
OVCAR-4
  growth at 10 µM: 24%
NCI-H322M
  GI50: 4.34 µM
  TGI: 16.5 µM
  CC50: 46.2 µM
RXF 393
  growth at 10 µM: -39%
KM12
  growth at 100 µM: -98%
HCC 2998 [3]
  GI50: 2.02 µM
  LC50: 7.24 µM
  TGI: 3.83 µM
SK-OV-3
  growth at 1 µM: 97%
MDA-MB-231 [4]
  IC50: 2.2 µM
Malme-3M
  growth at 1 µM: 114%
NCI-H23 [5]
  growth at 1 µM: 99%
NCI-H23 [6]
  growth at 100 µM: -51%
MDA-MB-435
  GI50: 2.53 µM
  LC50: 40.8 µM
  TGI: 7.23 µM
MOLT-4 [7]
  growth at 100 µM: -22%
SF-268 [8]
  growth at 0.1 µM: 101%
M14 [9]
  growth at 0.1 µM: 97%
SW-620
  GI50: 2.5 µM
  LC50 (lethal concentration, 50% net cell kill): 82.9 µM
  TGI: 6.94 µM
SR
  growth at 1 µM: 34%
NCI-H522
  growth at 100 µM: -92%
MDA-MB-231 [10]
  growth at 0.1 µM: 107%
OVCAR-8
  growth at 100 µM: -86%
SNB-19
  growth at 1 µM: 84%
M14 [11]
  growth at 0.01 µM: 95%
M14 [12]
  growth at 100 µM: -90%
K562 [13]
  growth at 1 µM: 71%
HCC 2998 [14]
  growth at 0.1 µM: 100%
COLO 205
  growth at 0.1 µM: 95%
SF-268 [15]
  growth at 10 µM: -49%
T47D
  growth at 100 µM: -40%

## COc1cc(-c2cc(/C=C/C(=O)c3ccc(F)c(F)c3)[nH]n2)cc(OC)c1OC
SK-MEL-5
  growth at 10 µM: -21%
HCT-15
  LC50: > 100 µM
  TGI: > 100 µM
MOLT-4 [1]
  growth at 10 µM: -4%
HL-60(TB)
  growth at 10 µM: -29%
K562 [2]
  growth at 100 µM: -7%
TK-10
  growth at 100 µM: -37%
OVCAR-5
  growth at 100 µM: -24%
786-0
  growth at 100 µM: -47%
OVCAR-4
  growth at 10 µM: 17%
NCI-H322M
  TGI: > 100 µM
  CC50: > 100 µM
RXF 393
  growth at 10 µM: -20%
KM12
  growth at 100 µM: -48%
HCC 2998 [3]
  LC50: > 100 µM
  TGI: 34.1 µM
SK-OV-3
  growth at 1 µM: 90%
MDA-MB-231 [4]
  IC50: 1.5 µM
Malme-3M
  growth at 1 µM: 97%
NCI-H23 [5]
  growth at 1 µM: 90%
NCI-H23 [6]
  growth at 100 µM: -27%
MDA-MB-435
  LC50: > 100 µM
  TGI: 13.3 µM
MOLT-4 [7]
  growth at 100 µM: -14%
SF-268 [8]
  growth at 0.1 µM: 94%
M14 [9]
  growth at 0.1 µM: 91%
SW-620
  LC50 (lethal concentration, 50% net cell kill): > 100 µM
  TGI: > 100 µM
SR
  growth at 1 µM: 84%
NCI-H522
  growth at 100 µM: -53%
MDA-MB-231 [10]
  growth at 0.1 µM: 96%
OVCAR-8
  growth at 100 µM: -12%
SNB-19
  growth at 1 µM: 82%
M14 [11]
  growth at 0.01 µM: 94%
M14 [12]
  growth at 100 µM: -38%
K562 [13]
  growth at 1 µM: 102%
HCC 2998 [14]
  growth at 0.1 µM: 92%
COLO 205
  growth at 0.1 µM: 98%
SF-268 [15]
  growth at 10 µM: 17%
T47D
  growth at 100 µM: -11%
